Data as given in patent US20260200939A1, “MOLECULAR GLUE DEGRADER COMPOUNDS AND USES THEREOF” (Novartis AG, priority 2022, published 2026).

Biological target: T1, BRD4 long (Homo sapiens, UniProt O60885)
T1 construct: endogenous in cells; host or cells: HEK293T
Experiment: BRD4 (long) degradation assay, Western blotting
Format: cell-based
Settings: first value of cell (long/short)
Outline: (§1)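 Cell lines were grown at 37° C with 5% CO2 (HEK293T and C33A in DMEM, A549 in F-12K, 22RV1, LNCaP and Mino in RPMI-1640, K562 and MV-4-11 in IMDM, all with 10% FBS). Lysates were BCA-normalized, then SDS/PAGE Western blots were probed with target-specific antibodies and read by IR680/IR800 fluorescent secondaries on Li-Cor.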

DC50 [nM] | SMILES
1000 to 5000 | Cc1sc2c(c1C)C(c1ccc(Cl)cc1)=N[C@@H](CC(=O)N[C@H]1C[C@H](NC(=O)/C=C/C(=O)c3cccc(Cl)c3Cl)C1)c1nnc(C)n1-2 [Compound 287, (E)-N-((1S,3r)-3-(2-((S)-4-(4-chlorophenyl)-2,3,9-trimethyl-6H-thieno[3,2-f][1,2,4]triazolo[4,3-a][1,4]diazepin-6-yl)acetamido)cyclobutyl)-4-(2,3-dichlorophenyl)-4-oxobut-2-enamide]

Same assay, conditions: first value of cell; range with lower bound in nM and upper bound in μM

DC50 [nM] | SMILES
100 to 1000 | Cc1sc2c(c1C)C(c1ccc(Cl)cc1)=N[C@@H](CC(=O)N[C@H]1C[C@H](NC(=O)/C=C/C(=O)c3cc(Cl)ccc3Cl)C1)c1nnc(C)n1-2 [Compound 288, (E)-N-((1S,3r)-3-(2-((S)-4-(4-chlorophenyl)-2,3,9-trimethyl-6H-thieno[3,2-f][1,2,4]triazolo[4,3-a][1,4]diazepin-6-yl)acetamido)cyclobutyl)-4-(2,5-dichlorophenyl)-4-oxobut-2-enamide]

Biological target: T2, BRD4 short (Homo sapiens, UniProt O60885)
T2 construct: endogenous in cells; host or cells: HEK293T
Experiment: BRD4 (short) degradation assay, Western blotting
Format: cell-based
Settings: second value of cell (long/short)
Outline: as §1

DC50 [nM] | SMILES
1000 to 5000 | Cc1sc2c(c1C)C(c1ccc(Cl)cc1)=N[C@@H](CC(=O)N[C@H]1C[C@H](NC(=O)/C=C/C(=O)c3cccc(Cl)c3Cl)C1)c1nnc(C)n1-2 [Compound 287, (E)-N-((1S,3r)-3-(2-((S)-4-(4-chlorophenyl)-2,3,9-trimethyl-6H-thieno[3,2-f][1,2,4]triazolo[4,3-a][1,4]diazepin-6-yl)acetamido)cyclobutyl)-4-(2,3-dichlorophenyl)-4-oxobut-2-enamide]

Same assay, conditions: second value of cell; range with lower bound in nM and upper bound in μM

DC50 [nM] | SMILES
100 to 1000 | Cc1sc2c(c1C)C(c1ccc(Cl)cc1)=N[C@@H](CC(=O)N[C@H]1C[C@H](NC(=O)/C=C/C(=O)c3cc(Cl)ccc3Cl)C1)c1nnc(C)n1-2 [Compound 288, (E)-N-((1S,3r)-3-(2-((S)-4-(4-chlorophenyl)-2,3,9-trimethyl-6H-thieno[3,2-f][1,2,4]triazolo[4,3-a][1,4]diazepin-6-yl)acetamido)cyclobutyl)-4-(2,5-dichlorophenyl)-4-oxobut-2-enamide]

Biological target: T3, Recombinant RNF126 (Homo sapiens, UniProt Q9BV68)
T3 construct: FLAG (C); host or cells: HEK293T
Experiment: RNF126 Binding Assay, gel-based ABPP
Settings: not given
Procedure: RNF126 mammalian expression plasmid with a C-terminal FLAG tag was purchased from Origene (Origene Technologies Inc., RC204986). The plasmid was transformed into NEB 5-alpha Competent E. coli (DH5) cells (NEB product no. C2987H). The following day, a single transformed colony was used to inoculate 50 ml of nutrient rich LB medium containing kanamycin (50 μg/ml) and was incubated at 37° C. overnight, with agitation (250 rpm). A Miniprep (Qiagen) kit was used to isolate the plasmid before sequence verification with appropriate primers.
HEK293T cells were grown to 30-50% confluency in DMEM supplemented with 10% FBS (Corning) and maintained at 37° C. with 5% CO2. Immediately before transfection, media was replaced with DMEM containing 5% FBS. Each plate was transfected with 24 μg of overexpression plasmid with 24 μL Lipofectamine 3000 (Invitrogen) in Opti-MEM. After 48 h cells were collected in PBS, lysed by sonication, and batch bound with anti-DYKDDDDK resin (GenScript, L00432) for 2 hours. Lysate and resin were washed with PBS and eluted with 133.33 μg/ml 3×FLAG peptide (ApexBio, A6001) in PBS. Five elutions were performed for 15 minutes each. Elutions were concentrated and the protein was stored in PBS. Concentration and purity was determined using the BCA assay and western blotting.
Recombinant RNF126 ([…]) was pre-treated with either DMSO vehicle or covalent ligand at 37° C. for 30 min in 25 μL of PBS, and subsequently treated with of IA-Rhodamine (concentrations designated in figure legends) (Setareh Biotech) at room temperature for 1 h in the dark. The reaction was stopped by addition of 4×reducing Laemmli SDS sample loading buffer (Alfa Aesar). After boiling at 95° C. for 5 min, the samples were separated on precast 4-20% Criterion TGX gels (Bio-Rad). Probe-labeled proteins were analyzed by in-gel fluorescence using a ChemiDoc MP (Bio-Rad).

T3 sequence (Q9BV68 whole entry): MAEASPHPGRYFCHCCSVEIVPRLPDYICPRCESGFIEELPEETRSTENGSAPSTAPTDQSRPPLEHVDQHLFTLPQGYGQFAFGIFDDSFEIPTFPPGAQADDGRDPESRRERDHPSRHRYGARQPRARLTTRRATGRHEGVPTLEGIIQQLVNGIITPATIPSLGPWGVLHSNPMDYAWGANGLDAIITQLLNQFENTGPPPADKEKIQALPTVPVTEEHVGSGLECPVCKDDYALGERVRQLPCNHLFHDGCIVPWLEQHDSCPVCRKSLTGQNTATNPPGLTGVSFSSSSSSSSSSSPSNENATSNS

SMILES | IC50 [nM]
COc1ccc(C(=O)/C(C)=C/C(=O)N2CCNCC2)cc1 [Compound 145, (E)-1-(4-methoxyphenyl)-2-methyl-4-(piperazin-1-yl)but-2-ene-1,4-dione] | > 50000
COc1ccccc1C(=O)/C=C/C(=O)N1CCNCC1 [Compound 147, (E)-1-(2-methoxyphenyl)-4-(piperazin-1-yl)but-2-ene-1,4-dione] | 1000 to 10000
O=C(/C=C/C(=O)N1CCNCC1)c1ccccc1F [Compound 149, (E)-1-(2-fluorophenyl)-4-(piperazin-1-yl)but-2-ene-1,4-dione] | 1000 to 10000
O=C(/C=C/C(=O)N1CCNCC1)c1ccc(F)cc1 [Compound 150, (E)-1-(4-fluorophenyl)-4-(piperazin-1-yl)but-2-ene-1,4-dione] | 1000 to 10000
COc1cccc(C(=O)/C=C/C(=O)N2CCN(C(=O)OC(C)(C)C)CC2)c1 [Compound 156, tert-butyl (E)-4-(4-(3-methoxyphenyl)-4-oxobut-2-enoyl)piperazine-1-carboxylate] | < 100
Cc1cccc(C(=O)/C=C/C(=O)N2CCN(C(=O)OC(C)(C)C)CC2)c1 [Compound 157, tert-butyl (E)-4-(4-oxo-4-(m-toly1)but-2-enoyl)piperazine-1-carboxylate] | < 100
CC(C)(C)OC(=O)N1CCN(C(=O)/C=C/C(=O)c2cccc(C(F)(F)F)c2)CC1 [Compound 162, tert-butyl (E)-4-(4-oxo-4-(3-(trifluoromethyl)phenyl)but-2-enoyl)piperazine-1-carboxylate] | < 100
CC(C)(C)OC(=O)N1CCN(C(=O)/C=C/C(=O)c2cccc(Br)c2)CC1 [Compound 163, tert-butyl (E)-4-(4-(3-bromophenyl)-4-oxobut-2-enoyl)piperazine-1-carboxylate] | < 100

Now from value to compound:

IC50 [nM] | SMILES
< 100 | CC(C)(C)OC(=O)N1CCN(C(=O)/C=C/C(=O)c2ccc(Br)cc2)CC1 [Compound 164, tert-butyl (E)-4-(4-(4-bromophenyl)-4-oxobut-2-enoyl)piperazine-1-carboxylate]
10000 to 50000 | COc1ccc(C(=O)/C=C(\C)C(=O)N2CCN(C(=O)OC(C)(C)C)CC2)cc1 [Compound 166, tert-butyl (E)-4-(4-(4-methoxyphenyl)-2-methyl-4-oxobut-2-enoyl)piperazine-1-carboxylate]
< 100 | CC(C)(C)OC(=O)N1CCN(C(=O)/C=C/C(=O)c2ccc3c(c2)NC(=O)CO3)CC1 [Compound 401, tert-butyl (E)-4-(4-oxo-4-(3-oxo-3,4-dihydro-2H-benzo[b][1,4]oxazin-6-yl)but-2-enoyl)piperazine-1-carboxylate]
< 100 | CC(C)(C)OC(=O)N1CCN(C(=O)/C=C/C(=O)c2ccc3c(c2)OCC3)CC1 [Compound 404, tert-butyl (E)-4-(4-(2,3-dihydrobenzofuran-6-yl)-4-oxobut-2-enoyl)piperazine-1-carboxylate]
< 100 | Cc1ccccc1C(=O)/C=C/C(=O)N1CCN(C(=O)OC(C)(C)C)CC1 [Compound 407, tert-butyl (E)-4-(4-oxo-4-(o-tolyl)but-2-enoyl)piperazine-1-carboxylate]
10000 to 50000 | COc1ccc(C(=O)/C=C\C(=O)N2CCN(C(=O)OC(C)(C)C)CC2)cc1 [Compound 411, tert-butyl (Z)-4-(4-(4-methoxyphenyl)-4-oxobut-2-enoyl)piperazine-1-carboxylate]

Same assay, conditions: range with lower bound in nM and upper bound in μM

SMILES | IC50 [nM]
O=C(/C=C/C(=O)N1CCNCC1)c1ccccc1 [Compound 152, (E)-1-phenyl-4-(piperazin-1-yl)but-2-ene-1,4-dione] | 100 to 1000
COc1ccc(C(=O)/C=C(\C#N)C(=O)N2CCN(C(=O)OC(C)(C)C)CC2)cc1 [Compound 153, tert-butyl (E)-4-(2-cyano-4-(4-methoxyphenyl)-4-oxobut-2-enoyl)piperazine-1-carboxylate] | 100 to 1000
CC(C)(C)OC(=O)N1CCN(C(=O)/C=C/C(=O)c2ccccc2Br)CC1 [Compound 154, tert-butyl (E)-4-(4-(2-bromophenyl)-4-oxobut-2-enoyl)piperazine-1-carboxylate] | 100 to 1000
CC(C)(C)OC(=O)N1CCN(C(=O)/C=C/C(=O)c2cccc(F)c2)CC1 [Compound 155, tert-butyl (E)-4-(4-(3-fluorophenyl)-4-oxobut-2-enoyl)piperazine-1-carboxylate] | 100 to 1000
CC(C)(C)OC(=O)N1CCN(C(=O)/C=C/C(=O)c2ccccc2Cl)CC1 [Compound 161, tert-butyl (E)-4-(4-(2-chlorophenyl)-4-oxobut-2-enoyl)piperazine-1-carboxylate] | 100 to 1000

Other lines, results leading:

IC50 [nM] | SMILES
100 to 1000 | CC(C)(C)OC(=O)N1CCN(C(=O)/C=C/C(=O)c2ccc3c(c2)OCCO3)CC1 [Compound 400, tert-butyl (E)-4-(4-(2,3-dihydrobenzo[b][1,4]dioxin-6-y1)-4-oxobut-2-enoy1)piperazine-1-carboxylate]
100 to 1000 | COc1ccc(C(=O)/C=C/C(=O)N2CCN(C(=O)OC(C)(C)C)CC2)cn1 [Compound 402, tert-butyl (E)-4-(4-(6-methoxypyridin-3-yl)-4-oxobut-2-enoyl)piperazine-1-carboxylate]
100 to 1000 | Cn1cc(C(=O)/C=C/C(=O)N2CCN(C(=O)OC(C)(C)C)CC2)ccc1=O [Compound 403, tert-butyl (E)-4-(4-(1-methyl-6-oxo-1,6-dihydropyridin-3-y1)-4-oxobut-2-enoyl)piperazine-1-carboxylate]
100 to 1000 | CC(C)(C)OC(=O)N1CCN(C(=O)/C=C/C(=O)c2ccc3c(c2)CCO3)CC1 [Compound 405, tert-butyl (E)-4-(4-(2,3-dihydrobenzofuran-5-y1)-4-oxobut-2-enoyl)piperazine-1-carboxylate]
100 to 1000 | Cc1ccc(C(=O)/C=C/C(=O)N2CCN(C(=O)OC(C)(C)C)CC2)cc1 [Compound 406, tert-butyl (E)-4-(4-oxo-4-(p-tolyl)but-2-enoyl)piperazine-1-carboxylate]
100 to 1000 | C#CCCCCC(=O)N1CCN(C(=O)/C=C/C(=O)c2ccc(OC)cc2)CC1 [Compound 408, (E)-1-(4-(hept-6-ynoyl)piperazin-1-y1)-4-(4-methoxyphenyl)but-2-ene-1,4-dione]
100 to 1000 | C#CCOCCC(=O)N1CCN(C(=O)/C=C/C(=O)c2ccc(OC)cc2)CC1 [Compound 409, (E)-1-(4-methoxyphenyl)-4-(4-(3-(prop-2-yn-1-yloxy)propanoyl)piperazin-1-yl)but-2-ene-1,4-dione]
